Test results reported in ChEMBL document CHEMBL4043145, “Pyridine-pyrimidine amides that prevent HGF-induced epithelial scattering by two distinct mechanisms” (Bioorg Med Chem Lett, 2017).

How the values were obtained:
Format in all cases: functional
A2780 [1] = test: Induction of apoptosis in human A2780 cells assessed as early apoptotic cells at 1000 nM by 7-AAD/Annexin staining-based assay (reference value: 1.7 to 2.1%)
A2780 [2] = test: Induction of apoptosis in human A2780 cells assessed as early apoptotic cells at 300 nM by 7-AAD/Annexin staining-based assay (reference value: 1.7 to 2.1%)
A2780 [3] = test: Induction of apoptosis in human A2780 cells assessed as nuclear debris at 300 nM by 7-AAD/Annexin staining-based assay (reference value: 0.3 to 1.1%)
A2780 [4] = test: Induction of apoptosis in human A2780 cells assessed as viable cells at 100 nM by 7-AAD/Annexin staining-based assay (reference value: 95 to 96.7%); details: read-out: Activity
A2780 [5] = test: Induction of apoptosis in human A2780 cells assessed as early apoptotic cells at 100 nM by 7-AAD/Annexin staining-based assay (reference value: 1.7 to 2.1%)
MCF7 [6] = test: Induction of apoptosis in human MCF7 cells assessed as viable cells at 1000 nM by 7-AAD/Annexin staining-based assay (reference value: 92.6 to 96.8%); details: read-out: Activity
MCF7 [7] = test: Induction of apoptosis in human MCF7 cells assessed as early apoptotic cells at 1000 nM by 7-AAD/Annexin staining-based assay (reference value: 2 to 2.7%)
MCF7 [8] = test: Induction of apoptosis in human MCF7 cells assessed as nuclear debris at 1000 nM by 7-AAD/Annexin staining-based assay (reference value: 0.2 to 3%)
MCF7 [9] = test: Induction of apoptosis in human MCF7 cells assessed as late apoptotic cells at 300 nM by 7-AAD/Annexin staining-based assay (reference value: 1 to 2.1%)
MCF7 [10] = test: Induction of apoptosis in human MCF7 cells assessed as nuclear debris at 300 nM by 7-AAD/Annexin staining-based assay (reference value: 0.2 to 3%)
MCF7 [11] = test: Induction of apoptosis in human MCF7 cells assessed as viable cells at 100 nM by 7-AAD/Annexin staining-based assay (reference value: 92.6 to 96.8%); details: read-out: Activity
MCF7 [12] = test: Induction of apoptosis in human MCF7 cells assessed as late apoptotic cells at 100 nM by 7-AAD/Annexin staining-based assay (reference value: 1 to 2.1%)
PC-3 [13] = test: Induction of apoptosis in human p53-null PC3 cells assessed as viable cells at 1000 nM by 7-AAD/Annexin staining-based assay (reference value: 96.5 to 98.6%); details: read-out: Activity
PC-3 [14] = test: Induction of apoptosis in human p53-null PC3 cells assessed as nuclear debris at 1000 nM by 7-AAD/Annexin staining-based assay (reference value: 0.1 to 0.5%)
PC-3 [15] = test: Induction of apoptosis in human p53-null PC3 cells assessed as early apoptotic cells at 300 nM by 7-AAD/Annexin staining-based assay (reference value: 0.6 to 1.4%)
PC-3 [16] = test: Induction of apoptosis in human p53-null PC3 cells assessed as nuclear debris at 300 nM by 7-AAD/Annexin staining-based assay (reference value: 0.1 to 0.5%)
PC-3 [17] = test: Induction of apoptosis in human p53-null PC3 cells assessed as early apoptotic cells at 100 nM by 7-AAD/Annexin staining-based assay (reference value: 0.6 to 1.4%)
PC-3 [18] = test: Induction of apoptosis in human p53-null PC3 cells assessed as late apoptotic cells at 100 nM by 7-AAD/Annexin staining-based assay (reference value: 0.4 to 1.6%)
PC-3 [19] = test: Induction of apoptosis in human p53-null PC3 cells assessed as nuclear debris at 100 nM by 7-AAD/Annexin staining-based assay (reference value: 0.1 to 0.5%)
MFE-280 [20] = test: Induction of apoptosis in human MFE280 cells assessed as nuclear debris at 1000 nM by 7-AAD/Annexin staining-based assay (reference value: 0.5 to 2.3%)
MFE-280 [21] = test: Induction of apoptosis in human MFE280 cells assessed as viable cells at 300 nM by 7-AAD/Annexin staining-based assay (reference value: 84.9 to 87.7%); details: read-out: Activity
MFE-280 [22] = test: Induction of apoptosis in human MFE280 cells assessed as nuclear debris at 100 nM by 7-AAD/Annexin staining-based assay (reference value: 0.5 to 2.3%)
MFE-296 [23] = test: Induction of apoptosis in human MFE296 cells assessed as viable cells at 1000 nM by 7-AAD/Annexin staining-based assay (reference value: 90.9 to 94.4%); details: read-out: Activity
MFE-296 [24] = test: Induction of apoptosis in human MFE296 cells assessed as nuclear debris at 1000 nM by 7-AAD/Annexin staining-based assay (reference value: 0.4 to 0.8%)
MFE-296 [25] = test: Induction of apoptosis in human MFE296 cells assessed as early apoptotic cells at 300 nM by 7-AAD/Annexin staining-based assay (reference value: 1.5 to 2.1%)
MFE-296 [26] = test: Induction of apoptosis in human MFE296 cells assessed as viable cells at 100 nM by 7-AAD/Annexin staining-based assay (reference value: 90.9 to 94.4%); details: read-out: Activity
MFE-296 [27] = test: Induction of apoptosis in human MFE296 cells assessed as early apoptotic cells at 100 nM by 7-AAD/Annexin staining-based assay (reference value: 1.5 to 2.1%)
MFE-296 [28] = test: Induction of apoptosis in human MFE296 cells assessed as late apoptotic cells at 100 nM by 7-AAD/Annexin staining-based assay (reference value: 3.6 to 6.6%)
T47D [29] = test: Induction of apoptosis in human T47D cells assessed as viable cells at 1000 nM by 7-AAD/Annexin staining-based assay (reference value: 74.5 to 94.5%); details: read-out: Activity
T47D [30] = test: Induction of apoptosis in human T47D cells assessed as early apoptotic cells at 1000 nM by 7-AAD/Annexin staining-based assay (reference value: 1.6 to 4.3%)
T47D [31] = test: Induction of apoptosis in human T47D cells assessed as late apoptotic cells at 1000 nM by 7-AAD/Annexin staining-based assay (reference value: 3 to 13.4%)
T47D [32] = test: Induction of apoptosis in human T47D cells assessed as late apoptotic cells at 300 nM by 7-AAD/Annexin staining-based assay (reference value: 3 to 13.4%)
T47D [33] = test: Induction of apoptosis in human T47D cells assessed as nuclear debris at 300 nM by 7-AAD/Annexin staining-based assay (reference value: 0.2 to 7.7%)
T47D [34] = test: Induction of apoptosis in human T47D cells assessed as late apoptotic cells at 100 nM by 7-AAD/Annexin staining-based assay (reference value: 3 to 13.4%)
T47D [35] = test: Induction of apoptosis in human T47D cells assessed as nuclear debris at 100 nM by 7-AAD/Annexin staining-based assay (reference value: 0.2 to 7.7%)

Row | Compound | Activity (A2780 [1]) [%] | Activity (A2780 [2]) [%] | Activity (A2780 [3]) [%] | viability at 0.1 µM (A2780 [4]) [%] | Activity (A2780 [5]) [%] | viability at 1 µM (MCF7 [6]) [%] | Activity (MCF7 [7]) [%] | Activity (MCF7 [8]) [%] | Activity (MCF7 [9]) [%] | Activity (MCF7 [10]) [%] | viability at 0.1 µM (MCF7 [11]) [%] | Activity (MCF7 [12]) [%] | viability at 1 µM (PC-3 [13]) [%] | Activity (PC-3 [14]) [%] | Activity (PC-3 [15]) [%] | Activity (PC-3 [16]) [%] | Activity (PC-3 [17]) [%] | Activity (PC-3 [18]) [%] | Activity (PC-3 [19]) [%] | Activity (MFE-280 [20]) [%] | other results
1 | CN[C@@H]1C[C@H]2O[C@@](C)([C@@H]1OC)n1c3ccccc3c3c4c(c5c6ccccc6n2c5c31)C(=O)NC4 [STAUROSPORINE] | 5.1 | 3.4 | 1 | 90.5 | 5.4 | 62.1 | 3.5 | 9.6 | 7.9 | 1.1 | 93 | 3.1 | 97.3 | 0.2 | 1 | 0.1 | 1.2 | 0.7 | 0.1 | 3.1 | viability at 0.3 µM (MFE-280 [21]): 57%; Activity (MFE-280 [22]): 1.1%; viability at 1 µM (MFE-296 [23]): 20.2%; Activity (MFE-296 [24]): 15.1%; Activity (MFE-296 [25]): 6.8%; viability at 0.1 µM (MFE-296 [26]): 83.6%; Activity (MFE-296 [27]): 7.5%; Activity (MFE-296 [28]): 6.6%; viability at 1 µM (T47D [29]): 88.4%; Activity (T47D [30]): 6.2%; Activity (T47D [31]): 4.8%; Activity (T47D [32]): 3.5%; Activity (T47D [33]): 0.4%; Activity (T47D [34]): 2.4%; Activity (T47D [35]): 0.1%
2 | O=C(Nc1ccc(-c2cccc(Cl)c2)cn1)c1cncnc1 | 4.5 | 3.5 | 0.9 | 92.7 | 3.6 | 94 | 3.3 | 0.3 | 3.1 | 0.5 | 94.4 | 1.9 | 97 | 0.5 | 0.8 | 0.2 | 0.6 | 0.4 | 0.1 | 0.7 | viability at 0.3 µM (MFE-280 [21]): 84.4%; Activity (MFE-280 [22]): 0.6%; viability at 1 µM (MFE-296 [23]): 84.3%; Activity (MFE-296 [24]): 2.9%; Activity (MFE-296 [25]): 2.8%; viability at 0.1 µM (MFE-296 [26]): 90.9%; Activity (MFE-296 [27]): 2.1%; Activity (MFE-296 [28]): 5.7%; viability at 1 µM (T47D [29]): 82.9%; Activity (T47D [30]): 12%; Activity (T47D [31]): 4.5%; Activity (T47D [32]): 3.8%; Activity (T47D [33]): 0.3%; Activity (T47D [34]): 2.3%; Activity (T47D [35]): 0.2%
